Molecules are shown by their SMILES.

For this test, the target named is HGFR (c-Met) (Homo sapiens, UniProt P08581). Kind of test: HGFR Continuous-Coupled Spectrophotometric Assay. The following applies: for Ki: HGFR enzyme 50 nM, Met-2 peptide substrate, 37° C.; for inhibition at 1 µM: compound at 1 μM. In kind it is biochemical. On the procedure: The general procedure is as follows: compounds and kinase assay reagents are introduced into test wells. The assay is initiated by addition of the kinase enzyme. Enzyme inhibitors reduce the measured activity of the enzyme.
HGFR (c-Met), sequence (P08581 974-1390): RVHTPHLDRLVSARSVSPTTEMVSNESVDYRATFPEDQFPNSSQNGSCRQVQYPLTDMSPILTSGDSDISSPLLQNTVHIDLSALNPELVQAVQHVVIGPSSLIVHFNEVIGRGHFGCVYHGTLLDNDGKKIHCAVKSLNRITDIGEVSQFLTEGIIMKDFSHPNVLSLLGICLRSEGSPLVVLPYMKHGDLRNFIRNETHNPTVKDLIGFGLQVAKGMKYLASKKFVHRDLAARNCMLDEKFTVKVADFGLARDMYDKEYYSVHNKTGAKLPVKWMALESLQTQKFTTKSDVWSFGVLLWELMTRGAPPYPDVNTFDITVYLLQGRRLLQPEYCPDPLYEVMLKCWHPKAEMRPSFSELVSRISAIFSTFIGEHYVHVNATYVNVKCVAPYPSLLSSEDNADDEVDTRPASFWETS
In the continuous-coupled spectrophotometric assay the time-dependent production of ADP by the kinase is determined by analysis of the rate of consumption of NADH by measurement of the decrease in absorbance at 340 nm. As the PK produces ADP it is re-converted to ATP by reaction with phosphoenol pyruvate and pyruvate kinase. Pyruvate is also produced in this reaction. Pyruvate is subsequently converted to lactate by reaction with lactate dehydrogenase, which simultaneously converts NADH to NAD.
HGFR Continuous-Coupled Spectrophotometric Assay
This assay analyzes the tyrosine kinase activity of HGFR on the Met-2 substrate peptide, a peptide derived from the activation loop of the HGFR.
• 1. […] Dissolve up in 200 mM HEPES, pH 7.5 at 10 mM stock. • 3. 1 M PEP (phospho-enol-pyruvate) in 200 mM HEPES, pH 7.5 • 4. 100 mM NADH (B-Nicotinamide Adenine Dinucleotide, Reduced Form) in 200 mM HEPES, pH 7.5 • 5. 4 M MgCl2 (Magnesium Chloride) in ddH2O 6. 1 M DTT (Dithiothreitol) in 200 mM HEPES, pH 7.5 • 7. 15 Units/mL LDH (Lactic Dehydrogenase) • 8. 15 Units/mL PK (Pyruvate Kinase) • 9. 5M NaCl dissolved in ddH2O • 10. Tween-20 (Protein Grade) 10% Solution • 11. 1 M HEPES buffer: (N-[2-Hydroxethyl]piperazine-N-[2-ethanesulfonic acid]) Sodium Salt. Dissolve in ddH2O, adjust pH to 7.5, bring volume to 1 L. Filter at 0.1 μm. • 12. […] 100% DMSO (SIGMA) • 14. […] Beckman DU-650 w/ micro cell holders • 18. Beckman 4-position micro cell cuvette Procedure:
Prep Dilution Buffer (DB) for Enzyme (For 30 mL prep) • 1. DB final concentration is 2 mM DTT, 25 mM NaCl2, 5 mM MgCl2, 0.01% Tween-20, and 50 mM HEPES buffer, pH 7.5. • 2. Make up 50 mM HEPES by adding 1.5 mL 1 M HEPES into 28.1 mL of ddH2O. Add rest of the reagents. Into 50 mL conical vial, add 60 μL of 1M DTT, 150 μL 5M NaCl2, 150 μL 1M MgCl2, and 30 μL of 10% Tween-20 to give total volume of 30 mL. • 3. Vortex for 5-10 seconds. • 4. Aliquot out DB at 1 mL/tube and label tubes as “DB HGFR” • 5. Note: This can be prepared and stored ahead of time. • 6. Freeze un-used aliquots in microcentrifuge tubes at −20° C. freezer.
Prep Compounds • 1. For compound dilution plate, add 4 μL of 10 mM stock into column 1 of plate, and bring volume to 100 μL with 100% DMSO. • 2. Set up the Precision 2000 dilution method. A final concentration of 200 μM compound in 50% DMSO, 100 mM HEPES (1:2 serial dilution).
Prep Coupled Enzymatic Buffer:
1. Final concentration in assay:
• 2. For a 10 mL reaction buffer add 10 μL of 1M PEP, 33 μL of 100 mM NADH, 50 μL of 4M MgCl2, 20 μL of 1M DTT, 6 μL of 500 mM ATP, and […] of 10 mM Met-2 peptide into 100 mM HEPES buffer pH 7.5 and vortex/mix. • 3. Add coupling enzymes, LDH and PK, into reaction mix. Mix by gentle inversion.
1. Spectrophotometer settings:
• 2. Add 85 μL of CE reaction mix into each well of assay plate. • 3. Add 5 μL of diluted compound into a well of the assay plate. • 4. Add 5 μL of 50% DMSO for negative control into last column of assay plate. • 5. Mix with multi-channel pipettor or orbital shaker. • 6. Pre-incubate for 10 minutes at 37° C. • 7. Add 10 μL of 500 nM HGFR to each well of assay plate; the final HGFR concentration is 50 nM in a total final volume of 100 μL. • 8. Measure activity for 10 minutes at λ=340 nm and 37° C.
Ki data were obtained using the HGFR Continuous-Coupled Spectrophotometric Assay, and IC50 data were obtained using the Cellular HGFR Autophosphorylation Assay, both of which are described above.

The molecule `CCN(CCO)C(=O)c1ccc(-c2cnc(N)c(OC(C)c3c(Cl)ccc(F)c3Cl)c2)cc1` (stereo not drawn) [Example 1, 4-{6-Amino-5-[1-(2,6-dichloro-3-fluorophenyl)ethoxy]-pyridin-3-yl}N-ethyl-N-(2-hydroxyethyl)benzamide] registered a Ki of 39 nM and an inhibition at 1 µM of 94%. On the same counts, the results for `CC(Oc1cc(-c2ccc(C(=O)N(C)CCC#N)cc2)cnc1N)c1c(Cl)ccc(F)c1Cl` (stereo not drawn) [Example 2, 4-{6-Amino-5-[1-(2,6-dichloro-3-fluorophenyl)ethoxy]pyridin-3-yl}-N-(2-cyanoethyl)-N-methylbenzamide] are 33 nM and 95%. `CC(C)NC(=O)CN1CCN(C(=O)c2ccc(-c3cnc(N)c(OC(C)c4c(Cl)ccc(F)c4Cl)c3)cc2)CC1` (stereo not drawn) [Example 3, 2-[4-(4-{6-Amino-5-[1-(2,6-dichloro-3-fluorophenyl)ethoxy]pyridin-3-yl}benzoyl)piperazin-1-yl]-N-isopropylacetamide] gave a Ki of 26 nM. Regarding `COCCN1CCN(C(=O)c2ccc(-c3cnc(N)c(OC(C)c4c(Cl)ccc(F)c4Cl)c3)cc2)CC1` (stereo not drawn) [Example 4], the Ki is 44 nM and the inhibition at 1 µM is 95%. In the same order, the values of `CC(Oc1cc(-c2ccc(C(=O)N3CCS(=O)(=O)CC3)cc2)cnc1N)c1c(Cl)ccc(F)c1Cl` (stereo not drawn) [Example 5, 3-[1-(2,6-Dichloro-3-fluorophenyl)ethoxy]-5-{4-[(1,1-dioxidothiomorpholin-4-yl)carbonyl]phenyl)pyridine-2-amine] are 31 nM and 96%. In the same order, the values of `CC(Oc1cc(-c2ccc(C(=O)N3CCC(N(C)C)CC3)cc2)cnc1N)c1c(Cl)ccc(F)c1Cl` (stereo not drawn) [Example 6] are 24 nM and 95%. On the same counts, the results for `CC(Oc1cc(-c2ccc(C(=O)N3CCN(C4CCN(C)CC4)CC3)cc2)cnc1N)c1c(Cl)ccc(F)c1Cl` (stereo not drawn) [Example 7, 3-[1-(2,6-Dichloro-3-fluorophenyl)ethoxy]-5-(4-{[4-(1-methylpiperidin-4-yl)piperazin-1-yl]carbonyl)phenyl)pyridin-2-amine] are 26 nM and 96%.

For `CC(Oc1cc(-c2ccc(C(=O)N3CC[N@]4C[C@H]3C4)cc2)cnc1N)c1c(Cl)ccc(F)c1Cl` (stereo partly drawn) [Example 8, 5-[4-(1,4-Diazabicyclo[3.1.1]hept-4-ylcarbonyl)phenyl]-3-[1-(2,6-dichloro-3-fluorophenyl)ethoxy]pyridin-2-amine], the affinity, expressed as Ki, was 20 nM and at 1 µM the inhibition was 94%.

The molecule `CNCCNC(=O)c1ccc(-c2cnc(N)c(OC(C)c3c(Cl)ccc(F)c3Cl)c2)cc1` (stereo not drawn) [Example 9, 4-{6-Amino-5-[1-(2,6-dichloro-3-fluorophenyl)ethoxy]pyridin-3-yl}-N-[2-(methylamino)ethyl)benzamide] registered a Ki of 37 nM and an inhibition at 1 µM of 91%. Molecule `CNCCCNC(=O)c1ccc(-c2cnc(N)c(OC(C)c3c(Cl)ccc(F)c3Cl)c2)cc1` (stereo not drawn) [Example 10, 4-{6-Amino-5-[1-(2,6-dichloro-3-fluorophenyl)ethoxy]pyridin-3-yl}-N-[3-(methylamino)propyl)benzamide] had a Ki of 37 nM and an inhibition at 1 µM of 89%. On the same counts, the results for `CC(Oc1cc(-c2ccc(C(=O)NCCCN)cc2)cnc1N)c1c(Cl)ccc(F)c1Cl` (stereo not drawn) [Example 11, 4-(6-Amino-5-[1-(2,6-dichloro-3-fluorophenyl)ethoxy]pyridin-3-yl}-N-(3-aminopropyl) benzamide] are 45 nM and 86%. Turning to `CC(Oc1cc(-c2ccc(C(=O)NC3CCNCC3)cc2)cnc1N)c1c(Cl)ccc(F)c1Cl` (stereo not drawn) [Example 12, 4-{6-Amino-5-[1-(2,6-dichloro-3-fluorophenyl)ethoxy]pyridin-3-yl}-N-piperidin-4-ylbenzamide], the Ki was 41 nM and the inhibition at 1 µM is 86%. In the same order, the values of `CC(Oc1cc(-c2ccc(C(=O)NCC3CCNCC3)cc2)cnc1N)c1c(Cl)ccc(F)c1Cl` (stereo not drawn) [Example 13, 4-{6-Amino-5-[1-(2,6-dichloro-3-fluorophenyl)ethoxy]pyridin-3-yl}-N-(piperidin-4-ylmethyl)benzamide] are 48 nM and 87%.

As for `CC(Oc1cc(-c2ccc(C(=O)NCC3CCNC3)cc2)cnc1N)c1c(Cl)ccc(F)c1Cl` (stereo not drawn) [Example 15, 4-{6-Amino-5-[1-(2,6-dichloro-3-fluorophenyl)ethoxy]pyridin-3-yl}-N-(pyrrolidin-3-ylmethyl)benzamide], affinity was put at a Ki of 71 nM and at 1 µM the inhibition was 85%. In the same order, the values of `CC(Oc1cc(-c2ccc(C(=O)NC3CCCNC3)cc2)cnc1N)c1c(Cl)ccc(F)c1Cl` (stereo not drawn) [Example 16, 4-{6-Amino-5-[1-(2,6-dichloro-3-fluorophenyl)ethoxy]pyridin-3-yl}-N-piperidin-3-ylbenzamide] are 44 nM and 91%. Molecule `CC(Oc1cc(-c2ccc(C(=O)NCCN)cc2)cnc1N)c1c(Cl)ccc(F)c1Cl` (stereo not drawn) [Example 17, 4-{6-Amino-5-[1-(2,6-dichloro-3-fluorophenyl)ethoxy]pyridin-3-yl}N-(2-aminoethyl) benzamide] gave a Ki of 68 nM and an inhibition at 1 µM of 90%. In the same order, the values of `CCNCCNC(=O)c1ccc(-c2cnc(N)c(OC(C)c3c(Cl)ccc(F)c3Cl)c2)cc1` (stereo not drawn) [Example 18, 4-{6-Amino-5-[1-(2,6-dichloro-3-fluorophenyl)ethoxy]pyridin-3-yl}-N-[2-(ethylamino)ethyl]benzamide] are 36 nM and 90%. In the same order, the values of `CC(Oc1cc(-c2ccc(C(=O)N3CCC4(CCNCC4)C3)cc2)cnc1N)c1c(Cl)ccc(F)c1Cl` (stereo not drawn) [Example 19, 5-[4-(2,8-Diazaspiro[4.5]dec-2-ylcarbonyl)phenyl]-3-[1-(2,6-dichloro-3-fluorophenyl)ethoxy]pyridin-2-amine] are 46 nM and 93%. On the same counts, the results for `CC(Oc1cc(-c2ccc(C(=O)N3CC4CNCC4C3)cc2)cnc1N)c1c(Cl)ccc(F)c1Cl` (stereo not drawn) [Example 20, 3-[1-(2,6-Dichloro-3-fluorophenyl)ethoxy]-5-[4-(hexahydropyrrolo[3,4-c]pyrrrol-2 (1H)-ylcarbonyl)phenyl]pyridin-2-amine] are 26 nM and 93%. For the molecule `COc1cc(-c2cnc(N)c(OC(C)c3c(Cl)ccc(F)c3Cl)c2)ccc1C(=O)N1C[C@@H](C)N[C@@H](C)C1` (stereo partly drawn) [Example 23, 3-[1-(2,6-dichloro-3-fluorophenyl)ethoxy]-5-(4-{[(3R,5S)-3,5-dimethylpiperazin-1-yl]carbonyl}-3-methoxyphenyl)pyridin-2-amine], the Ki was 27.2 nM. Still for that read-out and setting: with `COc1cc(-c2cnc(N)c(OC(C)c3c(Cl)ccc(F)c3Cl)c2)ccc1C(=O)N1CCCCC1` (stereo not drawn) [Example 24, 3-[1-(2,6-dichloro-3-fluorophenyl)ethoxy]-5-[3-methoxy-4-(piperidin-1-ylcarbonyl)phenyl]pyridin-2-amine] the figure was 1030 nM.

Usually Ki stands for the dissociation constant of the complex between target and ligand, obtained from inhibition or displacement. A higher Ki goes with lower affinity. One may read the inhibition as the relative decrease from the control value, in per cent.

These data come from patent publication US20060178374A1, “Aminoheteroaryl compounds as protein kinase inhibitors” (AGOURON PHARMACEUTICALS, INC., priority 2004, published 2006).
